Data set [1] addresses T1, Serine/threonine-protein kinase TNNI3K (Mus musculus) (UniProt Q5GIG6).
T1 sequence (whole entry): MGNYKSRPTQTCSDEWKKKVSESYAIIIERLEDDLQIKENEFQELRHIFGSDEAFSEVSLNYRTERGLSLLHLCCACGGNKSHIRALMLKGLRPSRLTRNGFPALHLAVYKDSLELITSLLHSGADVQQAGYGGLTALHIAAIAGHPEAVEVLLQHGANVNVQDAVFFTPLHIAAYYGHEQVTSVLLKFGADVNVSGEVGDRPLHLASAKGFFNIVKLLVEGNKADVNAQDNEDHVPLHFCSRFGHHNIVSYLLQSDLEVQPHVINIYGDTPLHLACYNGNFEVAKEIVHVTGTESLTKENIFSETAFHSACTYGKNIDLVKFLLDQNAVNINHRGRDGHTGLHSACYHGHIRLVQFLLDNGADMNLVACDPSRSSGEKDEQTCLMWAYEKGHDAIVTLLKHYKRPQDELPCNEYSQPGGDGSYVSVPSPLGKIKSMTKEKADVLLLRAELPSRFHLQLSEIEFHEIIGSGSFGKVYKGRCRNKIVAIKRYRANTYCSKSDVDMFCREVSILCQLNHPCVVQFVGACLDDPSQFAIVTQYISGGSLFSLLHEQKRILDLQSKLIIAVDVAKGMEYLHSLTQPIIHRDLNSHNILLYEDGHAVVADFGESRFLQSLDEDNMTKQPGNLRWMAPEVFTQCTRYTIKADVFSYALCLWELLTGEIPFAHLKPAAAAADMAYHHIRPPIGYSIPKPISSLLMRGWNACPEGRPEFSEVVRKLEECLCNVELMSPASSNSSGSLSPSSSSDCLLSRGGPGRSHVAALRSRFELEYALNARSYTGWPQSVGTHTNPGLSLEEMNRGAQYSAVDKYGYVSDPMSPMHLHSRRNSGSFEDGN
Description: Binding affinity to full length mouse His-MBP-TNNI3K assessed as half life in presence of rhodamine green labeled GW805818X by fluorescence competitive binding assay

Data set [2] is described as follows: Permeability of compound incubated for 2 hrs by liquid chromatography analysis. In kind it is ADME. The following applies: read-out: permeability.
The species named for data set [3] is Homo sapiens. The data set is described as follows: Selectivity index, ratio of IC50 for inhibition of VEGFR2 (unknown origin) to IC50 for inhibition of TNNI3K (unknown origin).
Data set [4] is filed under the species Homo sapiens. The data set is described as follows: Selectivity index, ratio of IC50 for inhibition of p38alpha (unknown origin) to IC50 for inhibition of TNNI3K (unknown origin).
Data set [5] has as its target Vascular endothelial growth factor receptor 2 (Homo sapiens, UniProt P35968). The experiment in a line: Inhibition of GST-6His tagged VEGFR2 (unknown origin) using biotin-aminohexyl-EEEEYFELVAKKKK-NH2 peptide substrate incubated for 90 mins by HTRF assay.
In data set [6] the target is T2, Serine/threonine-protein kinase TNNI3K (Homo sapiens) (UniProt Q59H18).
T2 sequence (whole entry): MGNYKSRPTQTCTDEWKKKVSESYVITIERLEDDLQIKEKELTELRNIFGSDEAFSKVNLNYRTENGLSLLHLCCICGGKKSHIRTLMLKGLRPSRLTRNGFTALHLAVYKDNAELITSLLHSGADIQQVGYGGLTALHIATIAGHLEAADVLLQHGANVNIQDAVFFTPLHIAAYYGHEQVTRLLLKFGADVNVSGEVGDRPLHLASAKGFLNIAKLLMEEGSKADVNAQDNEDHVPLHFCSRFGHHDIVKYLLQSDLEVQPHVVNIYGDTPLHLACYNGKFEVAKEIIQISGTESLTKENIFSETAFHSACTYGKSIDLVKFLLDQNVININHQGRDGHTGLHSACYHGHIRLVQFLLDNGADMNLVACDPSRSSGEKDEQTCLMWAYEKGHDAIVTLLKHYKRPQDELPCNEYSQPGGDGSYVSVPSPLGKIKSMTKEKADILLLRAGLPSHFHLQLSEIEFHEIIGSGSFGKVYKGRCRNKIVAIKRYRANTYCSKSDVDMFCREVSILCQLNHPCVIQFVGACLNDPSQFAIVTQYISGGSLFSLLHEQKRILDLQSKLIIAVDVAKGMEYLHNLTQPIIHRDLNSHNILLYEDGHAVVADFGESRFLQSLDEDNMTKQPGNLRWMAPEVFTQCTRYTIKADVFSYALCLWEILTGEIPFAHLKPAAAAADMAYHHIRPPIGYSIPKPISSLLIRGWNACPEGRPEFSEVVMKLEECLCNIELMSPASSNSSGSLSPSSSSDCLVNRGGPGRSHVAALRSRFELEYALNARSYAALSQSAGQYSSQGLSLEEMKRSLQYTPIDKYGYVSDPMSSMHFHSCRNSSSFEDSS
Description: Binding affinity to full length human His-MBP-TNNI3K assessed as half life in presence of rhodamine green labeled GW805818X by fluorescence competitive binding assay

The nature of data set [7]: Dose normalized AUC in po dosed rat administered as cassette dose. The class given is ADME, organism-based. Particulars: in vivo.
The target in data set [8] is Voltage-gated inwardly rectifying potassium channel KCNH2 (Homo sapiens, UniProt Q12809). The data set is described as follows: Inhibition of human ERG expressed in HEK293 cells. In kind it is cell-based.
In data set [9] the target is T3, Serine/threonine-protein kinase TNNI3K (Homo sapiens, UniProt Q59H18).
T3 sequence (Q59H18 whole entry): T2 sequence (whole entry)
The experiment in a line: Inhibition of TNNI3K (unknown origin).

For data set [10], the target named is Serine/threonine-protein kinase B-raf (Homo sapiens, UniProt P15056). The data set is described as follows: Inhibition of B-Raf (unknown origin).
The target of data set [11] is Mitogen-activated protein kinase 14 (Homo sapiens, UniProt Q16539). The experiment in a line: Inhibition of p38alpha (unknown origin).
In data set [12] the target is T3, Serine/threonine-protein kinase TNNI3K. The data set is described as follows: Inhibition of human myc-TNNI3K expressed in HEK-MSR2 cells assessed as reduction in TNNI3K autophosphorylation preincubated for 30 mins followed by pervanadate addition and measured after 20 mins by DELFIA. In kind it is cell-based.
For data set [13], the target named is T4, Serine/threonine-protein kinase TNNI3K (Mus musculus, UniProt Q5GIG6).
T4 sequence (Q5GIG6 whole entry): T1 sequence (whole entry)
The experiment in a line: Binding affinity to full length mouse His-MBP-TNNI3K assessed as off-rate constant in presence of rhodamine green labeled GW805818X by fluorescence competitive binding assay.

Data set [14] addresses T3, Serine/threonine-protein kinase TNNI3K. The experiment in a line: Binding affinity to full length human His-MBP-TNNI3K assessed as off-rate constant in presence of rhodamine green labeled GW805818X by fluorescence competitive binding assay.
A short description of data set [15]: Half life in po dosed rat administered as cassette dose. In kind it is ADME, organism-based. Particulars: in vivo.

The text below walks through data of ChEMBL document CHEMBL4840354, “Identification of Diarylurea Inhibitors of the Cardiac-Specific Kinase TNNI3K by Designing Selectivity Against VEGFR2, p38α, and B-Raf” (J Med Chem, 2021).

Voltage-gated inwardly rectifying potassium channel KCNH2, sequence (Q12809 whole entry): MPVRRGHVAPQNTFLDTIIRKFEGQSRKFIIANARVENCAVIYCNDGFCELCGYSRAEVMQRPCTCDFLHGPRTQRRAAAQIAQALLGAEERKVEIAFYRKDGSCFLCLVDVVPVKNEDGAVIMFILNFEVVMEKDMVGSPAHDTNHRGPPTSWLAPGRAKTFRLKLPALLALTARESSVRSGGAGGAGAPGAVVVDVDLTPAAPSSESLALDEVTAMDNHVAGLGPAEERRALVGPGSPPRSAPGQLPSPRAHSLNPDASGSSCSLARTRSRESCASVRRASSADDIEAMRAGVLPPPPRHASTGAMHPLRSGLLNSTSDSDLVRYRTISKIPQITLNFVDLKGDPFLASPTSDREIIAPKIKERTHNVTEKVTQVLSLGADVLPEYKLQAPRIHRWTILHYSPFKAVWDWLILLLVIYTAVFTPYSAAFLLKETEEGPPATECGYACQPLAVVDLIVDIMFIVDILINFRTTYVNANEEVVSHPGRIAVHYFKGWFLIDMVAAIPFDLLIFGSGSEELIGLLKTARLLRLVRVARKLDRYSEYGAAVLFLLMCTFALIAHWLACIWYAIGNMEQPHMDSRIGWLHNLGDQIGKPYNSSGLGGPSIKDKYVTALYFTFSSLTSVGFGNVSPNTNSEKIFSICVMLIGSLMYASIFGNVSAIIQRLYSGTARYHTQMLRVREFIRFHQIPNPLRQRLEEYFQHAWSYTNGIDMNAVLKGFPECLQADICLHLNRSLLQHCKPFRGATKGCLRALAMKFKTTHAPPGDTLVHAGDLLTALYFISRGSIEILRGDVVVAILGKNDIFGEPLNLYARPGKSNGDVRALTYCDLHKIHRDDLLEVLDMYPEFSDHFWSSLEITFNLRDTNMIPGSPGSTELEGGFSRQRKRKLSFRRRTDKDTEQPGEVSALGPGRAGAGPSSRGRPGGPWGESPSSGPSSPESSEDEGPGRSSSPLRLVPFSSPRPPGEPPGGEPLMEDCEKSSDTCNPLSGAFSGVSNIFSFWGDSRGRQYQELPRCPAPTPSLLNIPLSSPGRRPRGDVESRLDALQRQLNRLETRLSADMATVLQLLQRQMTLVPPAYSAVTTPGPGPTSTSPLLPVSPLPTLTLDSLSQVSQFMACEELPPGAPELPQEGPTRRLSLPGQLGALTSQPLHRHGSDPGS
Serine/threonine-protein kinase B-raf, sequence (P15056 whole entry): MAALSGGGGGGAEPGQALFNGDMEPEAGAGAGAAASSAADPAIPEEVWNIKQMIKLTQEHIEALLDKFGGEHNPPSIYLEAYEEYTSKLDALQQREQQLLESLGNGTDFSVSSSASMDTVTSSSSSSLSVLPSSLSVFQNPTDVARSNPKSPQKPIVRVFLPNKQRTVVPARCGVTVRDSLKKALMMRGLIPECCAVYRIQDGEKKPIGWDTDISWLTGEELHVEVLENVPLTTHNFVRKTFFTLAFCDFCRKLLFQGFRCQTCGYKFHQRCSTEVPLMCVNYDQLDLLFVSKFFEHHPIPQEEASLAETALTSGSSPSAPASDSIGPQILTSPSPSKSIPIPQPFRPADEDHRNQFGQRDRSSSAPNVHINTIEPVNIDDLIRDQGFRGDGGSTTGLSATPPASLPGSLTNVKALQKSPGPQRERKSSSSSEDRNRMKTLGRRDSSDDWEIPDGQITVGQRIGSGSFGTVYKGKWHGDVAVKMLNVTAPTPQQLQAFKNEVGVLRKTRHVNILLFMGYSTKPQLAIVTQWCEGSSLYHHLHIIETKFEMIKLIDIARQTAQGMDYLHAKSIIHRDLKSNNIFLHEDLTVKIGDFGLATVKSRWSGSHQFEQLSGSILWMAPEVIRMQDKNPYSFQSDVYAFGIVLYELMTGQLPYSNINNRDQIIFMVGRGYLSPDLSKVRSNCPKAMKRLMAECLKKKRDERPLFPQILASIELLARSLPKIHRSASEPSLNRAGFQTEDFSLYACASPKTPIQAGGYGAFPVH
Mitogen-activated protein kinase 14, sequence (Q16539 whole entry): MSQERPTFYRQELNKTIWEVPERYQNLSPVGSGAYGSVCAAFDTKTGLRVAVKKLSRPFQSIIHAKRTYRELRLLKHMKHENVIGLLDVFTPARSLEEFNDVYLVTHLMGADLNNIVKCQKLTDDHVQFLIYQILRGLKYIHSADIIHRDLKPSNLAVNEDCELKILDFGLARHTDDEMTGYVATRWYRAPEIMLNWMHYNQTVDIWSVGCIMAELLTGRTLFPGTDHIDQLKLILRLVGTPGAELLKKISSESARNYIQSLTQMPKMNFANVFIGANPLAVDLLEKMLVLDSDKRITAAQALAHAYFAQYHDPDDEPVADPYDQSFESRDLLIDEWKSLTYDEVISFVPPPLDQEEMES
Vascular endothelial growth factor receptor 2, sequence (P35968 whole entry): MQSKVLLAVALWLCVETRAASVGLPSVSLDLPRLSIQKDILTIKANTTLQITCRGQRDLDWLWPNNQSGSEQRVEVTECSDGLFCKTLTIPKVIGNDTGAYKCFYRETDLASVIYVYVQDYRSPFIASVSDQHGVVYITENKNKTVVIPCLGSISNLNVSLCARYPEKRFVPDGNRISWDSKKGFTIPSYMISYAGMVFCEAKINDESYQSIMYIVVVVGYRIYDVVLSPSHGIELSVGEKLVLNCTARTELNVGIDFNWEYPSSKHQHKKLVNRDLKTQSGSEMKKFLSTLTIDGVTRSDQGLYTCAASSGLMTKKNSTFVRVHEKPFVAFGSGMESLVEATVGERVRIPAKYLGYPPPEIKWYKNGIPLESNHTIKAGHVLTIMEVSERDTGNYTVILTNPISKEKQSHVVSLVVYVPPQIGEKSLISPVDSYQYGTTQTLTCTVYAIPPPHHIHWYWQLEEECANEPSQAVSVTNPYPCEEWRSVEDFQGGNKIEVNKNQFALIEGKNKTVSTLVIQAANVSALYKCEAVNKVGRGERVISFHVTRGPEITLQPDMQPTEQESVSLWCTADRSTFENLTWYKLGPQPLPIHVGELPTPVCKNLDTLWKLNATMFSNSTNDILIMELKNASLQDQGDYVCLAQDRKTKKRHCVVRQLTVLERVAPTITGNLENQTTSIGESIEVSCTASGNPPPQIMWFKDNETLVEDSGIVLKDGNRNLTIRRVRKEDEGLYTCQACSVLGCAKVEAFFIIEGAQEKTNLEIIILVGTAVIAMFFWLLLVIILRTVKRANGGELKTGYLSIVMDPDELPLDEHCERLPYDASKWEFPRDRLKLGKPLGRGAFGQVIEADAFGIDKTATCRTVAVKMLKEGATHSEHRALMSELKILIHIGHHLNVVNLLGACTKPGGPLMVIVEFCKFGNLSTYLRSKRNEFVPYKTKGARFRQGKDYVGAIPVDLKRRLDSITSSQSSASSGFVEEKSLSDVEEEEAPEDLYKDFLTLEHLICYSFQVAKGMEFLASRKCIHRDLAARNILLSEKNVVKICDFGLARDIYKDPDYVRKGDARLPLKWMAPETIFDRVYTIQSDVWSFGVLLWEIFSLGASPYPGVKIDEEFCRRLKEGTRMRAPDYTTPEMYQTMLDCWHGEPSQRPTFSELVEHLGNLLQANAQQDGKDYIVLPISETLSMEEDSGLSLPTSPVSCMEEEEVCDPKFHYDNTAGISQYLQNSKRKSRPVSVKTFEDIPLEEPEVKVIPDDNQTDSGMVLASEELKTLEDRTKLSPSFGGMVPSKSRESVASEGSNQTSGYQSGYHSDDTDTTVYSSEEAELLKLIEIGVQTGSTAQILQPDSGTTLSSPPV

`CNc1cc(Oc2c(Cl)cc(NC(=O)Nc3cccc(C(F)(F)F)c3)cc2Cl)ncn1`: the results for the T1/2 in data set [1] and in [6] were 0.417 h and 1.3 h, respectively. The Papp at 2 h in data set [2] amounted to 7.4 ×10⁻⁶ cm/s. Also, the Ratio IC50 in the data set filed under Homo sapiens [3] was determined as 40; in the data set listed under Homo sapiens [4], 80. For the same compound, the IC50 in data set [5] was 400 nM; in [8] it was greater than 31600 nM; in [9] it was 10 nM; in data set [10], greater than 2000 nM; in data set [11], 800 nM; in data set [12], 100 nM. Further, the AUC/dose in data set [7] amounted to 3.8 kg·h/L. Also, the Ki is 13 nM in data set [13] and 0.54 nM in data set [14]. In data set [15], this compound gave a half-life of 5.4 h.
